# Test results taken from patent publication US8597904B2, “Pharmaceutical compositions for the treatment of conditions responsive to proteasome inhibition” (priority 2007, dated 2013).
# Tests used:
# [1] = molecular target: T1, human erythrocyte 20S proteasomes, chymotrypsin-like activity (Homo sapiens, UniProt P28074); format: biochemical; conditions: for inhibition of chymotrypsin-like activity: 37° C., 100 μM Suc-LLVY-AMC
# T1 construct: which contains human erythrocyte 20S proteasomes; purchased BIOMOL International AK-740; host or cells: human erythrocytes
# Protocol: A 100 μl reaction volume contained 2 μg/ml 20S proteasome, 100 μM substrate, and the desired concentrations of syringolin A in dilution buffer (50 mM Tris-HCl, pH 7.5, 25 mM KCl, 10 mM NaCl, 1 mM MgCl2). Epoximicin and MG132 (BIOMOL® International) were used as test inhibitors. The release of free AMC (7-amino-4-methylcoumarin) at 37° C. was monitored with an MWGt Sirius HT fluorescence microplate reader (BIO-TEK® Instruments) equipped with a 360 nm excitation and a 460 nm emission filter. Proteolytic activities were measured as the increase in relative fluorescence units (RFU) over time (FIG. 7A-C). […] The initial velocities (vi) were determined from the time derivative of these curves and plotted versus the corresponding inhibitor concentration ([I]). […] Using SigmaPlot, the data were fitted to the hyperbolic equation vi=c+[v0/(Ki′+[I])], where v0 is the velocity of the control. […] The rate of covalent inhibition (kassociation), which equals kobs/[I] was calculated over the range of inhibitor concentrations given in parentheses in FIG. 7D. Values in FIG. 7D represent means±standard deviation.
# The fluorogenic substrates Suc-LLVY-AMC, Boc-LRR-AMC, and Z-LLE-AMC (BIOMOL® International) were used to monitor chymotrypsin-like, trypsin-like, and caspase-like activities, respectively. […] The release of free AMC (7-amino-4-methylcoumarin) at 37° C. was monitored with an MWGt Sirius HT fluorescence microplate reader (BIO-TEK® Instruments) equipped with a 360 nm excitation and a 460 nm emission filter.
# ubiquitinated proteins = test: immunoblot of total ubiquitinated proteins in SK-N-SH cells; format: cell-based, human; conditions: for increase of ubiquitinated proteins: 24 hours of treatment
# Protocol: As inhibition of the proteasome is expected to result in increased levels of ubiquitinated proteins (Meng, et al. 1999. Proc. Natl. Acad. Sci. U.S.A. 96:10403-10408, which is incorporated herein by reference in its entirety), the effect of syringolin A on total ubiquitinated protein accumulation was analyzed by immunoblot analysis. To do so, SK-N-SH cells were seeded in 6-well cell culture plates at a concentration of 3.8×10^5 cells per ml (1.98 ml per well). After 24 hours, 20 μl of syringolin A (final concentration 25 μM) or cell culture medium (control, C) was added. For time-course experiments, cell treatments were staggered in order to process all samples at the same time after 24 hours. Cell lysates were prepared as previously reported (Wallick, et al. 2005. Oncogene 24:5606-5618, which is incorporated herein by reference in its entirety). Sodium dodecyl sulfate-polyacrylamide gel electrophoresis (SDS-PAGE), electro transfer to PVDF Immobilon-P membranes (Millipore) and antibody incubations were performed according to standard procedures. The primary antibodies used were rabbit whole serum ubiquitin (1:150) (U5379; Sigma), mouse monoclonal tumor suppressor protein p53 (1:250) (se-126; Santa Cruz Biotechnology), and rabbit monoclonal α-tubulin (1:1,500) (11H10; Cell Signaling Technology). Horse radish peroxidase (HRP)-conjugated anti-mouse or anti-rabbit antibodies (1:5,000) were used as secondary antibodies. Membranes were developed using the ECL Plus kit following the manufacturer's protocol (Amersham Biosciences) and exposed to Blue Lite Autorad Film (ISC BioExpress). Membranes were stripped with ECL stripping buffer (62.5 mM Tris-HCL, pH 6.7, 2% SDS, 100 mM β-mercaptoethanol) for 20 min at 55° C. and sequentially re-probed with the next antibody.
# To further examine the inhibitory effect, whole cell lysates of GlbA-treated or untreated control cells were analyzed by Western blot and ubiquitinated proteins detected at endogenous levels.
# SK-N-SH cells = test: Cytox-Glo cytotoxicity assay; format: cell-based, human; conditions: for cytotoxicity: 0.25 μM GlbA or 25 μM SylA, 48 hours; for cytotoxicity in the presence of 3-MA: pre-treated with 3-MA
# Protocol: Determination of potential cytotoxic effects by GlbA and/or […] was carried out by using the Cytox-Glo cytotoxicity assay, which measures “dead cell proteases” from cells that have lost membrane integrity. Briefly, cells were treated with a single concentration of compound for 48 hours in a final volume of 100 μl, after which 50 μl of AAF-Glo luminogenic peptide substrate (alanyl-alanyl-phenylalanyl-aminoluciferin) was added to each well and incubated for 15 min at room temperature. The luminescence was measured by a Dynex MLX luminometer to give a reading of cells with damaged membranes. Next, 50 μl of digitonin was added to each well and the samples incubated for 15 minutes at room temperature. Luminescence was measured a second time to determine total cell number. Controls included cells with vehicle only, media, and media with compound.
# SK-N-SH cells were treated with 0.25 μM GlbA or 25 μM SylA and SKOV3 cells were treated with 1.0 μM GlbA or 25 μM SylA. As illustrated in FIGS. 16A and 16B, control cells (treated with DMSO and H2O representing GlbA and SylA controls, respectively) were viable and no cytotoxicity was detected.
# To determine if autophagy plays a role in GlbA/SylA-induced cell death, levels of cytotoxicity in cells pre-treated with 3-methyladenine (3-MA), an established autophagy inhibitor, were measured using the assay described in Example 12.
# TH-MYCN transgenic mouse = test: chemoprevention in TH-MYCN mouse model of human neuroblastoma; format: in vivo; conditions: homozygous mice, treatment from week 4 or 5, vs untreated mice
# Excerpt: The TH-MYCN transgenic mouse is a well-established neuroblastoma mouse model (Hansfored, et al. 2004. PNAS 101(34):12664-12669; Weiss, et al. 2007. Cancer Res 67(19):9435-9442; Weiss, et al. 2000. Cancer Res 6″2483-2487, each of which is incorporated herein by reference in its entirety). The tumors are caused by targeted expression of MYCN to the neural crest under the control of the rat tyrosine hydroxylase promoter, where the mice develop a tumor phenotype that closely resembles the human disease. The tumors in this strain of mouse generally develop in the abdominal and thoracic areas. TH-MYCN breeder pairs are supplied as hemizygote (129×1/SvJ-Tg(TH-MYCN)41Waw) and a wild type mate (129×1/SvJ).
# Treatment regimen is similar to that described in Example 16. Test compounds are administered to homozygous mice at a dose that is developed based upon the results of the initial dose and toxicity study (Example 15). Two to four doses per compound are administered by i.p. and/or i.v. methods into homozygous mice at week 4 or 5 (in advance of tumor development, which occurs closer to week 7). Vehicle is delivered as a control. Further doses are administered every 72 hours thereafter for 3 to 6 weeks. Between eight to twelve mice are tested in the study for administration of each compound. […] At the conclusion of the study, the mice are sacrificed and tumor size and number of tumors are assessed.
compound,measurement,setting,value
CCCCCCC/C=C/C=C/C(=O)N[C@H](C(=O)N[C@H]1C[C@@H](O)CCNC(=O)/C=C/[C@H](C)NC1=O)[C@@H](C)O [glidobactin A],inhibition of chymotrypsin-like activity,[1],blocked the chymotrypsin-like activity irreversibly at low concentrations
same,increase of ubiquitinated proteins,ubiquitinated proteins,3 fold
same,lower concentration of GlbA inducing effects comparable to SylA,ubiquitinated proteins; ubiquitinated proteins,100 fold
same,cytotoxicity,SK-N-SH cells,about 40%
same,cytotoxicity in the presence of 3-MA,SK-N-SH cells,significantly reduced
same,tumor formation,TH-MYCN transgenic mouse,fewer or no tumors
CC(C)[C@H](NC(=O)N[C@H](C(=O)N[C@H]1/C=C/CCNC(=O)/C=C/[C@H](C(C)C)NC1=O)C(C)C)C(=O)O [syringolin A],inhibition of chymotrypsin-like activity,[1],inhibited
same,mode of proteasome inhibition (reaction velocity over time),[1]; FIG. 7A,irreversible proteasome inhibitor
same,accumulation of ubiquitinated proteins,"ubiquitinated proteins; 25 μM, time-course",time-dependent accumulation of ubiquitinated proteins
same,increase of ubiquitinated proteins,ubiquitinated proteins,3 fold
same,cytotoxicity,SK-N-SH cells,~30%
same,cytotoxicity in the presence of 3-MA,SK-N-SH cells,significantly reduced
same,tumor formation,TH-MYCN transgenic mouse,fewer or no tumors
